Laboratory results taken from patent publication US20040138237A1, “Novel injectable depot formulations” (Pfizer Inc, priority 2002, published 2004).

Test: Solubilization of ziprasidone mesylate in concentrated aqueous SBECD solution (concentration, HPLC potency)
Type: physicochemical
Protocol: This particular example employs a high concentration of SBECD to form an aqueous solution of ziprasidone at about 80 mgA/ml with about 56% SBECD. To facilitate drug dissolution, a pre-weighed amount of SBECD (gram weight SBECD equivalent to ml of depot formulation being prepared) was dissolved in water by heating in a water bath at 50° C. Ziprasidone mesylate was added in about 50 mg increments while heat was supplied to maintain the system at 50-60° C. A total of 572.99 mg Ziprasidone mesylate was added to 3 ml of 100% SBECD solution resulting in formation of 140 mgA/ml (191 mg/ml) clear viscous solution. The above solution was cooled to room temperature, and the solution remained clear for 2 weeks. Due to volume expansion, the final concentration of ziprasidone was about 80 mgA/ml with 56% cyclodextrin.
The stock solution was prepared using the same method as described above, however due to the higher solution volume (20 ml), the dissolution time was much longer (over 4 hours) even though micronized ziprasidone mesylate was used. During compounding, significant volume expansion was noted. To correct for the volume expansion, the specific gravity of the solution was determined to be 1.188 gm/ml. The volume of water used to prepare this solution was 20 ml, however, the final volume of the solution was 36.6 ml, and the weight of the solution was 43.5 gm. Therefore, taking into consideration 83% volume expansion, the corrected concentrations of drug and SBECD in this solution are 77 mgA/ml and 55% w/v, respectively.
The extent of solubilization was further confirmed by preparation of 82 mgA/ml ziprasidone solution with 59% SBECD using the same method. Viscosity was greater than 160 cps.

corrected concentration of drug in solution (55% w/v SBECD, corrected for 83% volume expansion, scaled-up stock solution): 77 mgA/ml
potency of solution by HPLC potency method (scaled-up stock solution, 55% w/v SBECD): 75 mgA/ml
final concentration of ziprasidone in clear aqueous solution (with 56% cyclodextrin (SBECD), after volume expansion): about 80 mgA/ml
SMILES: O=C1Cc2cc(CCN3CCN(c4nsc5ccccc45)CC3)c(Cl)cc2N1 [ziprasidone]
